The source of these data is ChEMBL document CHEMBL3351405, “Novel tricyclic pyrazolopyrimidines as potent and selective GPR119 agonists” (Bioorg Med Chem Lett, 2014).

SMILES strings stand for the structures. Values after ≈ are worked out from the molar mass of the structure shown.

As a reminder, the EC50 is the concentration at which the effect is half-maximal. In general, solubility refers to the dissolved amount per volume that the medium holds.

Series [1] concerns the target T1, Glucose-dependent insulinotropic receptor (Homo sapiens, UniProt Q8TDV5).
T1 sequence (Q8TDV5 whole entry): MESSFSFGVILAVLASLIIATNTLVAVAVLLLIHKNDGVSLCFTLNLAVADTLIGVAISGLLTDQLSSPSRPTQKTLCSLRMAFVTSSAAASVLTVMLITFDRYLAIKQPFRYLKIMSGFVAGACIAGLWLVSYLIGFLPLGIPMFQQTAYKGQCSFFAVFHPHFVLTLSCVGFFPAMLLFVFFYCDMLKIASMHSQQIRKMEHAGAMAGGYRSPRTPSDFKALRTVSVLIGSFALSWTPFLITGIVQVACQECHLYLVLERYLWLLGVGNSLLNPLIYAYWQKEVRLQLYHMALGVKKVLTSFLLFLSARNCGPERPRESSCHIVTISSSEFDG
As to the kind of experiment: Agonist activity at human GPR119 overexpressed in CHO cells assessed as increase in cellular cAMP production by HTRF method. Format: functional, cell-based. Background: cAMP levels reflect the balance of adenylyl cyclase and phosphodiesterase activity.

The target of series [2] is T2, Glucose-dependent insulinotropic receptor (Homo sapiens) (UniProt Q8TDV5).
T2 sequence (whole entry): T1 sequence (Q8TDV5 whole entry)
As to the kind of experiment: Agonist activity at human GPR119 overexpressed in CHO cells assessed as increase in cellular cAMP production by HTRF method relative to AR231453. Format: functional, cell-based.

The nature of series [3]: Clearance in human liver microsomes assessed as extraction ratio. Format: ADME. Conditions: read-out: ERH.
The subject of series [4] is Mus musculus. As to the kind of experiment: Dose normalized AUC in po dosed Balb/C mouse. Format: ADME, organism-based. Particulars: in vivo.
The nature of series [5]: Solubility of the compound at pH 6.8. Format: physicochemical. Conditions: buffer.
The test system of series [6] is Mus musculus. As to the kind of experiment: Increase in plasma GLP1 level in 16 hrs fasted wild-type C57BL/6J mouse at 10 mg/kg, po administered as single dose 30 mins prior to glucose excursion measured after 2 mins by ELISA relative to vehicle-treated control. Format: functional. (In an ELISA, binding on a coated surface is turned into a signal by an enzyme label.)

In series [7] the test system is Rattus norvegicus. As to the kind of experiment: Antidiabetic activity in ZDF fa/fa rat model assessed as reduction in glucose AUC at 3 mg/kg, po qd administered 1 hr prior to glucose bolus after 2 weeks by OGTT relative to vehicle-treated control. More on the design: scale not given: the % may be the effect or the level left. Format: functional, Zucker.
Series [8] has as its system Rattus norvegicus. As to the kind of experiment: Antidiabetic activity in ZDF fa/fa rat model assessed as reduction in glucose AUC at 10 mg/kg, po qd administered 1 hr prior to glucose bolus after 2 weeks by OGTT relative to vehicle-treated control. Type of series: functional, Zucker. More on the design: scale not given: the % may be the effect or the level left.
The test system of series [9] is Rattus norvegicus. As to the kind of experiment: Antidiabetic activity in ZDF fa/fa rat model assessed as reduction in glucose AUC at 30 mg/kg, po qd administered 1 hr prior to glucose bolus after 2 weeks by OGTT relative to vehicle-treated control. More on the design: scale not given: the % may be the effect or the level left. Type of series: functional, Zucker.

With `COC(=O)[C@@]1(Cc2cccc(F)c2)NCc2cnc3c(-c4ccc(C(F)(F)F)cc4)c(CO)nn3c21`, the EC50 in series [1] worked out at 5 nM. The Efficacy in [2] turned out to be 99%; in series [2] (tested as the 2H-labelled form), 103%. The hepatic extraction ratio in series [3] worked out at 0.82. This molecule also displayed an AUC/dose in the series on Mus musculus [4] of 7.65 µM·h. This molecule came in with a solubility in series [5] of 58 µM (≈ 29 µg/mL). For the same molecule, the Activity in the series on Mus musculus [6] was 29%; in the series with Rattus norvegicus [7] it was 1%; in the series with Rattus norvegicus [8], 11%; with Rattus norvegicus [9], 37%.
